Test results published in patent US10028992B2, “Methods of treating muscular dystrophy” (BOARD OF REGENTS OF THE NEVADA SYSTEM OF HIGHER EDUCATION …, priority 2012, dated 2018).

Test system: α7 integrin promoter
Test: muscle cell-based assay: α7βgal+/− myoblasts/myotubes, LacZ reporter, β-galactosidase cleavage of FDG
Set-up: species or system mouse
Conditions: Myotubes; for Results in a α7+/− β-galactosidase assay, Myotubes, 0.5 uM: compound at 0.5 uM; for Results in a α7+/− β-galactosidase assay, Myotubes, 1 uM: compound at 1 uM; for Results in a α7+/− β-galactosidase assay, Myotubes, 5 uM: compound at 5 uM; for Results in a α7+/− β-galactosidase assay, Myotubes, 10 uM: compound at 10 uM; for Results in a α7+/− β-galactosidase assay, Myotubes, 20 uM: compound at 20 uM; for Results in a α7+/− β-galactosidase assay, Myotubes, 40 uM: compound at 40 uM
Summary of the method: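 Fluorescein generated from FDG by β-galactosidase reports α7 integrin promoter activity in differentiated myoblasts from α7+/− LacZ knock-in pups. Screening hits then went to dose-response, western blotting and a myostatin counterscreen.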

SMILES | Results in a α7+/− β-galactosidase assay, Myotubes, 0.5 uM | Results in a α7+/− β-galactosidase assay, Myotubes, 1 uM | Results in a α7+/− β-galactosidase assay, Myotubes, 5 uM | Results in a α7+/− β-galactosidase assay, Myotubes, 10 uM | Results in a α7+/− β-galactosidase assay, Myotubes, 20 uM | Results in a α7+/− β-galactosidase assay, Myotubes, 40 uM
c1ccc(-c2cn3c4c(sc3n2)CCCC4)cc1 [drawing 490] | −0.06339 | 0.06029 | −0.3683 | −0.08198 | −0.09547 | 0.1666
COc1ccccc1CC(=O)Nc1cc(S(=O)(=O)N2CCOCC2)ccc1N1CCOCC1 [drawing 491] | 0.003263 | 0.04702 | −0.2793 | 0.1263 | −0.1143 | 0.0714
COc1ccccc1/C=C1\C(=O)Nc2ccccc21 [drawing 492] | −0.03334 | 0.08625 | −0.2626 | 0.09022 | −0.05273 | 0.2894
CN1C(=O)N(CC(=O)N2CCN(S(=O)(=O)c3ccc(Cl)s3)CC2)C(=O)C12CCCCC2 [drawing 493] | 0.02298 | 0.1534 | −0.342 | 0.1222 | −0.2548 | −0.1971
Cn1cc(CN2CCC(C(=O)Nc3cccc(-c4cscn4)c3)CC2)cn1 [drawing 494] | −0.07662 | 0.03293 | −0.2802 | 0.1352 | −0.1701 | 0.00319
O=C1Cc2ccccc2/C1=C\c1ccc([N+](=O)[O-])cc1 [drawing 495] | −0.06418 | −0.0268 | −0.312 | 0.004591 | −0.246 | −0.2389
CCCC(=O)OCC(=O)c1[nH]c(C)c(C(C)=O)c1C [drawing 496] | −0.1192 | −0.0136 | −0.3312 | −0.02935 | −0.1657 | −0.01124
CCO/C(C)=C1\C(=O)Nc2ccccc21 [drawing 497] | −0.1394 | 0.0259 | −0.3175 | −0.219 | −0.1574 | 0.04819
COc1ccc(C(=O)Nc2ccc(Cl)cn2)cc1Cl [drawing 498] | 0.01557 | −0.1102 | −0.4051 | −0.6189 | −0.2285 | −0.2585
CCOc1ccccc1NC(=O)c1cccc2c1C(=O)N(C1CCCCC1)C2 [drawing 499] | 0.0377 | −0.1345 | −0.3317 | −0.3744 | −0.1769 | −0.1762
CCOC(=O)C1CCCN(C(=O)CNS(=O)(=O)c2ccc(Br)s2)C1 (stereo not drawn) [drawing 500] | −0.02306 | 0.05901 | −0.3059 | −0.1617 | −0.03881 | −0.02855
Cc1nnc(SCC(=O)c2ccc(Br)cc2)s1 [drawing 501] | −0.07126 | 0.01886 | −0.2188 | −0.3746 | −0.08999 | 0.006174
